Assay results published in ChEMBL document CHEMBL6177932 (J Med Chem, 2024).
Calls of active or inactive are those of the source. The rule behind the calls is not given here.

Key:
[1] = target: T1, Vitamin D3 receptor (Mus musculus) (UniProt P48281); test: Agonist activity at VDR in mouse 4T1 cells assessed as induction of Cyp24a1 gene at 0.1 to 10 uM measured after 24 hrs by RT-qPCR analysis; type: cell-based; conditions: filed as agonist, dose 0.1-10 µM
T1 sequence (whole entry): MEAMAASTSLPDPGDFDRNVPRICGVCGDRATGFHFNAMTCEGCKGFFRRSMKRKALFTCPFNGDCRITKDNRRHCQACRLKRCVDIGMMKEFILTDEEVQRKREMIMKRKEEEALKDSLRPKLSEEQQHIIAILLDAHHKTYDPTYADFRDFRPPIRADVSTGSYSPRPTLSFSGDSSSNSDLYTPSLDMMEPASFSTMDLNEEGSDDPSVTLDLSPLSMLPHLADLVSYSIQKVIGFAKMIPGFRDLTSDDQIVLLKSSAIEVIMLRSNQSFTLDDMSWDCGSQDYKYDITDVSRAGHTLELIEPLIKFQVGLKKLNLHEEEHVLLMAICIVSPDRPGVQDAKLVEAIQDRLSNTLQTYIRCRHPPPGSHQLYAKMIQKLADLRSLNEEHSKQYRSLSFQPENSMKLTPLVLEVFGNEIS

[2] = target: T1, Vitamin D3 receptor (Mus musculus); test: Agonist activity at VDR in mouse 4TO7 cells assessed as induction of Cyp24a1 gene at 0.1 to 10 uM measured after 24 hrs by RT-qPCR analysis; type: cell-based; conditions: filed as agonist, dose 0.1-10 µM
4TO7 = test: Inhibition of class 1 HDAC in mouse 4TO7 cells assessed as induction of H3K9 acetylation at 10 uM measured after 6 hrs by Western blot analysis; type: cell-based
[3] = target: Histone deacetylase 9 (Homo sapiens) (UniProt Q9UKV0); test: Inhibition of human HDAC9 at 100 uM using Boc-Lys(trifluoroacetyl)-AMC as substrate by fluorogenic assay
Histone deacetylase 9 (Homo sapiens), sequence (Q9UKV0 whole entry): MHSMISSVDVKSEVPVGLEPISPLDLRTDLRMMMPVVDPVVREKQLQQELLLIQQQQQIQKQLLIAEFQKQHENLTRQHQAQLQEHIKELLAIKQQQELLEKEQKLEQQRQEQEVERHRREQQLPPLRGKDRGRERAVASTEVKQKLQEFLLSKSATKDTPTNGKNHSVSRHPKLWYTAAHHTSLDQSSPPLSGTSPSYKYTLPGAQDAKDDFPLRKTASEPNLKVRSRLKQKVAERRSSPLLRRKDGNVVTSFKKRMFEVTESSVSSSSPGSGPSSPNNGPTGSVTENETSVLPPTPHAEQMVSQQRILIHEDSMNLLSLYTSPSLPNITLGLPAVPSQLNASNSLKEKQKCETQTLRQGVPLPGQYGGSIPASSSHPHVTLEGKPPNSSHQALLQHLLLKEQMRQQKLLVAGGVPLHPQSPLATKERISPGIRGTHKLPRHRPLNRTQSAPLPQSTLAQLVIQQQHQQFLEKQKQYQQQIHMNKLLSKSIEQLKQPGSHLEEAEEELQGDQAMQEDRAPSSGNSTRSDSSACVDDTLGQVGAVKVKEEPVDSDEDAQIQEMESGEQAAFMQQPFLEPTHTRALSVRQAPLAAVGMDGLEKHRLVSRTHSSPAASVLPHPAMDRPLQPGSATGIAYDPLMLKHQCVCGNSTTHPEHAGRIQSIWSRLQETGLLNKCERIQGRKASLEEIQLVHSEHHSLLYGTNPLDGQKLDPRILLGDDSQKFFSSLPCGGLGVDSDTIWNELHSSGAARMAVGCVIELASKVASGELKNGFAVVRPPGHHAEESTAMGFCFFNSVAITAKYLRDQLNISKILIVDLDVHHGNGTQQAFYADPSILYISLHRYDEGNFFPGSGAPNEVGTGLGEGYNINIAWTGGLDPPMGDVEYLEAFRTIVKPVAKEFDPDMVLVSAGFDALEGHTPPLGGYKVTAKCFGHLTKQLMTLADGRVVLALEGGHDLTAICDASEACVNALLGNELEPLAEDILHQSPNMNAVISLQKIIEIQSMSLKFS

[4] = target: T2, Protein deacetylase HDAC6 (Mus musculus) (UniProt Q9Z2V5); test: Inhibition of HDAC6 in mouse B16-F10 cells assessed as induction of tubulin acetylation at 10 uM measured after 6 hrs by Western blot analysis; type: cell-based
T2 sequence (whole entry): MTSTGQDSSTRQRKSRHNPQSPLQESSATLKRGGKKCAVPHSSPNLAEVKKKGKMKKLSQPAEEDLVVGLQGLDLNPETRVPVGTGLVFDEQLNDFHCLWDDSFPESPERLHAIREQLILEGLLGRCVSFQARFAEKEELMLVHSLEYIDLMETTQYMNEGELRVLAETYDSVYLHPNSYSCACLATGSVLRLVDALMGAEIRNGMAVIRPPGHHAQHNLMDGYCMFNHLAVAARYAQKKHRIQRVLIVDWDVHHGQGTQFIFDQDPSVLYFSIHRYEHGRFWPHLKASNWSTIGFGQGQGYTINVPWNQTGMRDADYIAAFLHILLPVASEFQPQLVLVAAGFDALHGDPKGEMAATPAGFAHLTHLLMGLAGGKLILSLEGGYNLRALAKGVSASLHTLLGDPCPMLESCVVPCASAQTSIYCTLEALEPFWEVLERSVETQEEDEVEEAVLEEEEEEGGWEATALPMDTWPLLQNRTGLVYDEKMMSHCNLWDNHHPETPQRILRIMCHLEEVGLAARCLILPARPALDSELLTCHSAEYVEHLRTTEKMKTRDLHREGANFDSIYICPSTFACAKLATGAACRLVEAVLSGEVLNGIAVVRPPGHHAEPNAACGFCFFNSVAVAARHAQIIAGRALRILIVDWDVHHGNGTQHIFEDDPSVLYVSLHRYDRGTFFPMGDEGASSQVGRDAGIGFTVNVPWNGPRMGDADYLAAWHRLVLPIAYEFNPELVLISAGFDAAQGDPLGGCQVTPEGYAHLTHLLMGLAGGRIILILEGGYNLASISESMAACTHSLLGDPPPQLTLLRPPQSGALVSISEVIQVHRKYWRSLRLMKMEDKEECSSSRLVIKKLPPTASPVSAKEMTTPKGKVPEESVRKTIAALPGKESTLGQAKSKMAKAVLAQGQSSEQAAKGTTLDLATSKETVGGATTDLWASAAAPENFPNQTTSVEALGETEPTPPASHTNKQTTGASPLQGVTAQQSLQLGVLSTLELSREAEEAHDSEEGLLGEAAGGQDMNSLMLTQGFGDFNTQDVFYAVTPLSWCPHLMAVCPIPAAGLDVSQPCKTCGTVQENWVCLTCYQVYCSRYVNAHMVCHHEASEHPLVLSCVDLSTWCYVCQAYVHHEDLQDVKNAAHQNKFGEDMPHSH

B16-F10 [5] = test: Inhibition of class 1 HDAC in mouse B16-F10 cells assessed as induction of H3K9 acetylation at 10 uM measured after 6 hrs by Western blot analysis; type: cell-based
B16-F10 [6] = test: Inhibition of class 1 HDAC in mouse B16-F10 cells assessed as induction of H3K27 acetylation at 10 uM measured after 6 hrs by Western blot analysis; type: cell-based
B16-F10 [7] = test: Cytotoxicity against mouse B16-F10 cells assessed as reduction in cell viability at 0.01 to 100 uM measured after 24 hrs by RealTime-glo cell viability assay; type: functional, cell-based; conditions: dose 0.01-100 µM
[8] = Toxicity in mouse B16-F10 cells implanted C57BL/6 mouse at 5 mg/kg, ip administered daily for 28 days; type: organism-based; conditions: in vivo, time 28 day
[9] = Toxicity in 4T1 cells implanted BALB/c mouse assessed as body weight loss at 1.5 to 5 mg/kg, ip administered daily for 18 days; type: organism-based; conditions: in vivo, 432 h, dose 1.5-5 mg/kg, time 18 day
Mus musculus [10] = test: Immunomodulatory activity in mouse 4T1 cells implanted BALB/c mouse assessed as reduction in Ccl20 gene expression at 1.5 to 5 mg/kg, ip administered daily for 18 days by RT-qPCR analysis; type: functional, organism-based; conditions: dose 1.5-5 mg/kg, time 18.0 day
Mus musculus [11] = test: Immunomodulatory activity in mouse 4T1 cells implanted BALB/c mouse assessed as reduction in total macrophage infiltration into tumors at 1.5 to 5 mg/kg, ip administered daily for 18 days by F4/80 staining based immunofluorescence microscopy; type: functional, organism-based; conditions: dose 1.5-5 mg/kg, time 18.0 day
Mus musculus [12] = test: Immunomodulatory activity in mouse 4T1 cells implanted BALB/c mouse assessed as reduction in M2 macrophage infiltration into tumors at 1.5 to 5 mg/kg, ip administered daily for 18 days by arginase 1 staining based immunofluorescence microscopy; type: functional, organism-based; conditions: dose 1.5-5 mg/kg, time 18.0 day
[13] = target: Vitamin D3 receptor (Mus musculus) (UniProt P48281); test: In vivo agonist activity at VDR in mouse B16-F10 cells implanted C57BL/6 mouse assessed as induction of VDR gene in tumor at 5 mg/kg, ip administered 2 times at 24 hrs interval by RT-qPCR analysis; conditions: time 48.0 hrs
[14] = target: Vitamin D3 receptor (Mus musculus) (UniProt P48281); test: In vivo agonist activity at VDR in mouse B16-F10 cells implanted C57BL/6 mouse assessed as induction of Cyp24al gene in tumor at 5 mg/kg, ip administered 2 times at 24 hrs interval by RT-qPCR analysis; conditions: time 48.0 hrs

Activity [1]: Active | Activity [2]: Active | Activity [13]: Active | Activity [14]: Active
SMILES: CCC(CC)(c1ccc(C(=O)NCCCCC(=O)NO)cc1)c1ccc(OCC(O)C(C)(C)C)c(C)n1 (stereo not given)
inhibition (4TO7): Active; Induced Higher Levels Of Acetylation Than Saha | inhibition [3]: Not active; No Or Very Limited Inhibition Was Observed | inhibition [4]: Active; Acetylation Was Comparable Or Greater Than Saha | inhibition (B16-F10 [5]): Active; Acetylation Was Comparable Or Greater Than Saha | inhibition (B16-F10 [6]): Active; Acetylation Was Comparable Or Greater Than Saha | Activity (B16-F10 [7]): Active | Activity [8]: Non-toxic | Activity [9]: Non-toxic | Activity (Mus musculus [10]): Active | Activity (Mus musculus [11]): Active; Significantly Reduced Macrophage Infiltration Into Tumor | Activity (Mus musculus [12]): Active; Compound Was Most Efficacious At Reducing The M2 Macrophages
